Holding throughout (format): in vivo, rat
In assay [1] the test system is osteoporosis model rats. Nature of the assay: Serum estrogen indicators (E2, FSH) by ELISA in osteoporosis model rats. The following applies: bilateral ovariectomy female SD rats, intragastric once a day, 8 weeks, 10 mg/kg. As to the method:
(§1) Samples: the traditional Chinese medicine (TCM) composition prepared in Example 1, a positive drug (Estradiol Valerate) and a competing drug (Caltrate).
(§2) Female SD rats were randomly divided into sham operation group, model group, positive control group (estradiol valerate), competing drug group (Caltrate), high dose TCM composition (prepared in Example 1) group and low dose TC′M composition (prepared in Example 1) group, and 8 in each group.
(§3) Female SD rats were treated by bilateral ovariectomy to establish osteoporosis model rats.
(§4) The osteoporosis model rats were subjected to intragastric administration once a day and the administration cycle lasted for 8 weeks.
(§5) After 8 weeks, the rats were sacrificed, and blood was collected from the abdominal aorta and subjected to standing for 1 hour. Then the blood sample was centrifuged to collect serum, which was detected for the bone metabolic biochemical indicators, including bone glaprotein (BGP), bone specific alkaline phosphatase (BALP), carboxyterminal propeptide of type I procollagen (PICP) and N-telopeptides of type I collagen (NTX); estrogen indicators, including serum estradiol E2 and follicle stimulating hormone (FSH); and blood biochemical indexes, including serum phosphorus and serum calcium. […]
(§6) The dosage for rats was calculated as follows: • dosage for rat (daily dose for human/60)*6;
A general note: An ELISA detects its analyte on a solid surface through an enzyme-linked reagent.

The test system of assay [2] is osteoporosis model rats. In words: Serum biochemical indexes (phosphorus, calcium) in osteoporosis model rats. As to the method:
as §1, §2, §3, §4
(§7) After 8 weeks, the rats were sacrificed, and blood was collected from the abdominal aorta and subjected to standing for 1 hour. Then the blood sample was centrifuged to collect serum, which was detected for the bone metabolic biochemical indicators, including bone glaprotein (BGP), bone specific alkaline phosphatase (BALP), carboxyterminal propeptide of type I procollagen (PICP) and N-telopeptides of type I collagen (NTX); estrogen indicators, including serum estradiol E2 and follicle stimulating hormone (FSH); and blood biochemical indexes, including serum phosphorus and serum calcium. Moreover, the complete bilateral femurs were collected, on which the muscle tissues were, completely removed. The left femur was used for femoral mechanical testing, and the right femur was tested for related parameters such as bone density. The above experimental data was used to evaluate the efficacy of the TCM composition of the disclosure.
(§8) The dosage of the TCM composition was determined based on the recommended crude drug dosage in the pharmacopoeia, and 1 g of extract was obtained after the extraction.
(§9) Positive control group: 0.1 g/day for human.
(§10) Competing drug group (Caltrate): one tablet (1 g)/day and 600 mg of calcium/tablet.
(§11) High dose TCM composition group: 1 g/day for human; low dose TCM composition group: 0.5 g/day for human.
as §6

Assay [3] has as its system osteoporosis model rats. Nature of the assay: Bone metabolic biochemical indicators (BGP, BALP, PICP, NTX) by ELISA in osteoporosis model rats. The following applies: bilateral ovariectomy female SD rats, intragastric once a day, 8 weeks, serum, 10 mg/kg. The procedure: as §1, §2, §3, §4, §7, §8, §9, §10, §11, §6
For assay [4], the system named is osteoporosis model rats. Nature of the assay: Bone density parameters of right femur in osteoporosis model rats. The following applies: bilateral ovariectomy female SD rats, intragastric once a day, 8 weeks, femoral metaphysis, 10 mg/kg. The procedure:
as §1, §2, §3, §4, §7, §8, §9, §10, §11, §6

Assay [5] deals with osteoporosis model rats. In words: Femoral mechanical testing (left femur) in osteoporosis model rats. The following applies: bilateral ovariectomy female SD rats, intragastric once a day, 8 weeks, 10 mg/kg. The procedure: as §1, §2, §3, §4, §5, §6
[6] abbreviates: bilateral ovariectomy female SD rats, intragastric once a day, 8 weeks, 10 mg/kg.

Marks after values point to notes of the source that are not given here.

Consider `CCCCC(=O)O[C@H]1CC[C@H]2[C@@H]3CCc4cc(O)ccc4[C@H]3CC[C@]12C` [Positive control, Estradiol Valerate], for which, in the assay with osteoporosis model rats [1], the “E2 (serum estradiol)” value was determined as 32.45 ± 10.24 pg/mL and the FSH came out at 96.55 ± 11.84 ng/mL. Moreover, in the assay with osteoporosis model rats [2] (setting [6]), the “Ca (serum calcium)” value amounted to 2.33 ± 0.13 mmol/L and the “P (serum phosphorus)” value was found to be 3.1 ± 0.53 mmol/L. Further, the “serum phosphorus content compared to the model group and the sham-operation group” value with osteoporosis model rats [2] (positive control group, 8 weeks' administration, P<0.05) is recorded as “significantly higher”. In the assay with osteoporosis model rats [3], the “BALP (bone specific alkaline phosphatase)” value was 764.2 ± 123.81 pg/mL, the “BGP (bone glaprotein)” value amounted to 9.93 ± 2.23 ng/mL, the “NTX (N-telopeptides of type I collagen)” value was determined as 26.92 ± 5.68 ng/mL and the “PICP (carboxyterminal propeptide of type I procollagen)” value stood at 739.33 ± 175.34 ng/mL. In the assay with osteoporosis model rats [4], the “BMD (bone mineral density)” value stood at 0.198 ± 0.051 g/cm^2, the “BV/TV (bone volume fraction)” value stood at 16.863 ± 5.237 %, the “Tb. N (trabecular number)” value is on record as 2.392 ± 0.809* 1/mm and the “Tb. Sp (trabecular separation/spacing)” value is listed as 455.6 ± 182.901 μm. In addition, the “Load (maximum load of femur)” value in the assay with osteoporosis model rats [5] was 109.67 ± 26.78 N.

The values are drawn from patent US20210069275A1, “TRADITIONAL CHINESE MEDICINE COMPOSITION FOR IMPROVING BONE HEALTH AND PREPARATION AND USES THEREOF” (Chenland Nutritionals Inc., priority 2020, published 2021).
